The source of these data is patent publication US20080262037A1, “Piperidine Derivatives for the Treatment of Chemokine Mediated Disease” (ASTRAZENECA AB, priority 2004, published 2008).

Where a name gives a salt, the structure may show the parent alone.

In the assay the target is T1, human H1 receptor (Homo sapiens, UniProt P35367).
T1 construct: purchased Euroscreen SA, Brussels, Belgium ES-390-M; host or cells: CHO-K1 cells (membranes)
Kind of assay: Histamine H1 receptor binding, competition displacement of [3H]-pyrilamine. As to conditions: displacement of 1 nM [3H]-pyrilamine; membranes from recombinant CHO-K1 cells expressing the human H1 receptor; 1 hour at room temperature; read-out: H1 pKi/[1328_S] (converted).

T1 sequence (P35367 whole entry): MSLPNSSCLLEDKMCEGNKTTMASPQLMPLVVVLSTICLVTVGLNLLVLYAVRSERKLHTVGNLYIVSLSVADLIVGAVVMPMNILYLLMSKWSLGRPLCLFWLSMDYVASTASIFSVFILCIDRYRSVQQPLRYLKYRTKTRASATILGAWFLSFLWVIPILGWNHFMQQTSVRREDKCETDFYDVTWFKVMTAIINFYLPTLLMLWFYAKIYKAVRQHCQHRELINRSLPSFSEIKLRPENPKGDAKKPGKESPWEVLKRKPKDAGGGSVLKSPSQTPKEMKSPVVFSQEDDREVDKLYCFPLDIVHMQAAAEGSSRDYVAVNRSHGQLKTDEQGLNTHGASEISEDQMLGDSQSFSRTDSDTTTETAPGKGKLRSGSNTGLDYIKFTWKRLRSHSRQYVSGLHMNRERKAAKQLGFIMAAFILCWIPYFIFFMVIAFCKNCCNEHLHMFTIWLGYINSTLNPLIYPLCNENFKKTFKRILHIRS

As to `COc1ccc(CC(=O)O)cc1N1CCC(CN2CCC(Oc3ccc(Cl)c(Cl)c3)CC2)CC1` [Example 23, [3-(4-{[4-(3,4-Dichlorophenoxy)piperidin-1-yl]methyl}piperidin-1-yl)-4-methoxyphenyl]acetic acid], the Ki is 12.6 nM.

On to `CC(C)(Oc1ccccc1N1CCC(CN2CCC(Oc3ccc(Cl)c(Cl)c3)CC2)CC1)C(=O)O` [Example 27, 2-[2-(4-{[4-(3,4-Dichlorophenoxy)piperidin-1-yl]methyl}piperidin-1-yl)phenoxy]-2-methylpropanoic acid], for which the Ki is 31.6 nM. In the case of `C[C@@H](Oc1ccccc1N1CCC(CN2CCC(Oc3ccc(Cl)c(Cl)c3)CC2)CC1)C(=O)O` [Example 28, (2R)-2-[2-(4-{[4-(3,4-Dichlorophenoxy)piperidin-1-yl]methyl}piperidin-1-yl)phenoxy]propanoic acid], the Ki is 10 nM. The figure for `C[C@H](Oc1ccccc1N1CCC(CN2CCC(Oc3ccc(Cl)c(Cl)c3)CC2)CC1)C(=O)O` [Example 29, (2S)-2-[2-(4-{[4-(3,4-Dichlorophenoxy)piperidin-1-yl]methyl}piperidin-1-yl)phenoxy]propanoic acid] is 12.6 nM; for `C[C@@H](Oc1cccc(N2CCC(CN3CCC(Oc4ccc(Cl)c(Cl)c4)CC3)CC2)c1)C(=O)O` [Example 30, (2R)-2-[3-(4-{[4-(3,4-Dichlorophenoxy)piperidin-1-yl]methyl}piperidin-1-yl)phenoxy]propanoic acid] it is 12.6 nM. As for `Cc1c(OC2CCN(CC3CCN(c4ccc(CC(=O)O)cc4)CC3)CC2)ccc(Cl)c1Cl` [Example 33, [4-(4-{[4-(3,4-Dichloro-2-methylphenoxy)piperidin-1-yl]methyl}piperidin-1-yl)phenyl]acetic acid], the Ki is 12.6 nM. As for `Cc1c(OC2CCN(CC3CCN(c4cccc(O[C@H](C)C(=O)O)c4)CC3)CC2)ccc(C#N)c1Cl` [Example 37, (2R)-2-[3-(4-{[4-(3-Chloro-4-cyano-2-methylphenoxy)piperidin-1-yl]methyl}piperidin-1-yl)phenoxy]propanoic acid], the Ki was 398 nM. For `O=C(O)COc1ccc(Cl)cc1N1CCC(CN2CCC(Oc3ccc(Cl)c(Cl)c3)CC2)CC1` [Example 39, (4-Chloro-2-{4-[4-(3,4-dichloro-phenoxy)-piperidin-1-ylmethyl]-piperidin-1-yl}-phenoxy)-acetic acid hydrochloride] the value was 2 nM; for `O=C(O)COc1c(Cl)cccc1N1CCC(CN2CCC(Oc3ccc(Cl)c(Cl)c3)CC2)CC1` [Example 40, (2-chloro-6-{4-[4-(3,4-dichloro-phenoxy)-piperidin-1-ylmethyl]-piperidin-1-yl}-phenoxy)-acetic acid], 3.16 nM. In the case of `Cc1c(OC2CCN(CC3CCN(c4cccc(O[C@@H](C)C(=O)O)c4)CC3)CC2)ccc(Cl)c1Cl` [Example 44, (2S)-2-[3-(4-{[4-(3,4-dichloro-2-methylphenoxy)piperidin-1-yl]methyl}piperidin-1-yl)phenoxy]propanoic acid], the Ki is 20 nM.
